# Key:
# [1] = Single-dose oral toxicity study in rats; conditions: Sprague Dawley, rat, in vivo, 1 day
# Protocol: (§1) A battery of genotoxicity studies was also performed. […] The L23 vehicle was used.
# Because maximal exposure occurred at 100 mg/kg, this dose is considered the NOAEL for 1 day of dosing.
# HeLa cells = test: […]-GLO luminescent cell viability assay in HeLa cultures; format: cell-based, human; conditions: any concentration tested
# Protocol: Experimental Design. HeLa (human cervical carcinoma) cell cultures were established under normoxic conditions (21% oxygen). HeLa cells increase VEGF production 4- to 5-fold in response to hypoxia. […] At the completion of treatment, the conditioned media were collected and the VEGF protein levels were assayed in an enzyme-linked immunosorbent assay (ELISA) with primary antibodies that recognize the soluble VEGF121 and VEGF165 isoforms (R & D Systems, Minneapolis, Minn., USA). To ensure that decreases in VEGF concentration were not due to cytotoxicity, cultures were assayed using a standard assay ([…]-GLO® Luminescent Cell Viability Assay; Promega, Madison, Wis., USA) that measures total cellular adenosine triphosphate (ATP) concentrations as an indicator of cell viability.
# soluble VEGF isoforms = test: ELISA of soluble VEGF production in nontransformed keratinocytes under hypoxia or normoxia; format: cell-based, human; conditions: normoxic, 72 hours
# Protocol: Experimental Design. Nontransformed normal human keratinocyte cell cultures were established under normoxic conditions (21% oxygen). […] At the completion of treatment, cells were assessed for viability with an ATP assay and conditioned media were evaluated for VEGF protein levels by ELISA (as described in Section 9.1.1.1).
# [2] = Quantitative whole-body autoradiography tissue distribution of 14C-Compound #10; format: in vivo; conditions: rats, single oral 50 mg/kg
# Protocol: For the QWBA, the carcasses were prepared by immediately freezing them, embedding them in chilled carboxymethylcellulose, and freezing them into blocks. Appropriate cryomicrotome sections of the blocks at 40 μm thickness were collected on adhesive tape. Mounted sections were tightly wrapped and exposed on phosphorimaging screens along with plastic embedded autoradiographic standards. Exposed screens were scanned and the autoradiographic standard image data were sampled to create a calibrated standard curve. Specified tissues, organs, and fluids were analyzed.
# [3] = 28-day oral toxicity study in rats with 14-day recovery; format: in vivo
# Protocol: as §1
# Exposures were maximal at 120 mg/kg/day.
# [4] = Oral pharmacokinetics / toxicokinetics in rats; format: in vivo, Sprague Dawley rats
# Protocol: (§2) The pharmacokinetic evaluations in mice were adjuncts to the primary pharmacodynamic xenograft studies. The evaluations in rats included toxicokinetic assessments in single-dose, 7-day, and 28-day toxicology studies as well as a mass-balance study after a single oral dose of ^14C-Compound #10. The evaluations in dogs included toxicokinetic assessments in 7-day and 28-day toxicology studies. In the studies performed, rodents were dosed once daily with Compound #10 formulated in vehicle and administered via oral gavage.
# HT1080 cells = test: Kinetics of S-phase transit by BrdU incorporation in HT1080 cells; format: cell-based, human; conditions: HT1080, 18-hour treatment
# Protocol: Experimental Design. HT 1080 cells are exposed to BrdU (bromodeoxyuridine, a synthetic nucleoside that is an analogue of thymidine and is incorporated into DNA during the S phase of cell division) (FITC BrdU Flow Kit, BD Pharmingen catalog #552598). Cells are grown and treated as described in Section 9.3.1.3 above with the exception that one hour prior to harvesting by trypsinization, BrdU (final concentration 1 μM) is added to each culture for 1 hour. Cells actively replicating DNA during this brief time incorporate the BrdU into the DNA, which can then be quantitated. BrdU content is quantitated with using the FITC BrdU Flow Kit as instructed by the manufacturer. The process includes fixation (paraformaldehyde) and DNA staining with 7-AAD (7-amino-actinomycin D) followed by incubation with a fluoro-tagged anti-BrdU antibody that specifically recognizes BrdU incorporated into DNA. Dual channel FACS analysis permits assessment of both the DNA content of individual cells and the rate of transit across the S-phase, which is assessed based upon BrdU incorporation over the one hour treatment period.
# [5] = Oral toxicokinetics in dogs; format: in vivo, beagle dogs
# Protocol: as §2
# HT1080 spheroids = test: 3-dimensional growth of HT1080 spheroids (DNA content, BrdU, morphology); format: cell-based, human
# Protocol: Experimental Design. HT1080 cells grown as a monolayer were trypsinized and seeded onto a 0.75% agar noble base to prevent the cells from attaching to the bottom of the tissue culture plate and to allow/promote the cells to self-adhere and grow as 3-dimensional spheroids. […] The cells were incubated for 22 and 45 hours at 37° C., in the presence of a 10% CO2 atmosphere. Spheroids were visually checked daily for morphological changes and a medium was replenished two times per week. […] These pulse labeled spheroids were then harvested, washed and trypsinized (triple action solution, Gibco), pelleted and prepared for FACS analysis with a FITC BrdU Flow Kit, (BD Pharmingen). Cells were fixed and permeabilized with paraformadehyde and DNA stained with 7-AAD followed by incubation with an antibody which specifically recognizes […] incorporated into DNA. As described in Section 9.3.1.4. Cells were analyzed and sorted by 7-AAD signal (DNA content) to determine cell cycle phase, and BrdU content (percent actively synthesizing DNA).
# Spheroids, prepared as above, were treated with either vehicle alone (0.5% DMSO v/v final) added to the media or a Compounds provided herein (10 nM or 50 nM final concentration) in media to which vehicle has been added.
# [6] = Oral pharmacokinetics in mice; format: in vivo
# Protocol: as §2
# [7] = tested on: VEGF189 and VEGF206 isoforms; test: In-Cell Western and Western blot of matrix associated VEGF189/206 in HT1080 cells; format: cell-based, human; conditions: normoxic, 48 hours
# Protocol: Experimental Design. HT1080 (human fibrosacoma) cell cultures were established under normoxic conditions (21% oxygen). HT1080 cells constitutively overproduce VEGF even under normoxic conditions. […] At the completion of treatment, the cells were washed and harvested. Cells were incubated with a primary antibody that recognizes the VEGF189 and VEGF206 isoforms. Infrared-dye labeled antibodies were applied secondarily, and the amounts of VEGF189 and VEGF206 were determined using the IN-CELL WESTERN® assay and ODYSSEY® infrared imaging system (Li-Cor, Lincoln, Nebr., USA); results are expressed as percentage inhibition relative to vehicle treated controls. Conventional Western blotting using the same primary antibody was also performed to confirm the presence of the matrix associated isoforms; for these experiments actin was used as a loading control. Actin is a ubiquitous housekeeping protein that is not known to be post transcriptionally regulated.
# [8] = Phase 1 escalating multiple-dose study in healthy volunteers: safety and tolerability; format: in vivo; conditions: through the highest dose level tested ([…] TID)
# Protocol: The study was performed under the oversight of the French health authorities. The study was not performed under an IND.
# Methods. The trial was a Phase 1, randomized, escalating multiple dose, single center study conducted in 2 stages.
compound,measurement,setting,value
COc1ccc(C2c3[nH]c4ccc(Cl)cc4c3CCN2C(=O)Oc2ccc(Cl)cc2)cc1 (racemic) [Compound #10],dose at which maximal exposure occurred,[1],100 mg/kg
same,"cytotoxicity (cell viability, ATP)",HeLa cells,No cytotoxicity was observed
same,decrease in VEGF concentrations in conditioned media,soluble VEGF isoforms,21%
same,blood-brain barrier penetration (in words),[2],penetrates the blood-brain barrier
same,signs of toxicity,[2],no overt signs of toxicity
same,mean PT and aPTT,"[3]; 40 and 120 mg/kg/day, males but not females, 28-day study",reversible increases
same,NOAEL at 28 days,"[3]; both sexes, Sprague Dawley, rat, in vivo, rats, oral gavage",12 mg/kg/day
same,dose at which exposures were maximal,"[3]; rats, 12, 40, and 120 mg/kg/day, 28 days",120 mg/kg/day
same,oral bioavailability (in words),[4],orally bioavailable
same,relationship between dose and plasma exposure (in words),[4]; oral,bell-shaped curve
same,BrdU incorporation by individual cells during the one-hour period vs DMSO control (in words),HT1080 cells,incorporated less BrdU
same,percentage of cells residing in S-phase (in words),HT1080 cells; increasing doses,net increase
same,oral bioavailability (in words),[5],orally bioavailable
same,relationship between dose and plasma exposure (in words),[5]; oral,bell-shaped curve
same,percentage of cells that incorporated BrdU (cells in S-phase) (in words),"HT1080 spheroids; HT1080 spheroids, 24 or 48 hours",not significantly altered
same,spheroid morphology (in words),"HT1080 spheroids; maintained in the presence of compound for three weeks, data not shown",no obvious morphological changes
same,cell cycle distribution of HT1080 spheroids (in words),HT1080 spheroids; treated for 24 hours,not affected
same,cell cycle distribution of HT1080 spheroids (in words),HT1080 spheroids; treated for 48 hours,not affected
same,oral bioavailability (in words),[6],orally bioavailable
same,relationship between dose and plasma exposure (in words),[6]; oral,bell-shaped curve
same,inhibition of matrix associated VEGF189 and VEGF206 isoforms (in words),[7],potent concentration-dependent inhibition
same,dose limiting toxicities,[8],no dose limiting toxicities were observed

# Source: patent US8697662B2, “Methods for treating Kaposi sarcoma” (PTC Therapeutics, Inc., priority 2009, dated 2014)
